System: 695427-040-R-J1-PDC complex spheroid viability
Test: Anticancer human tumor 695427-040-R-J1-PDC patient-derived colon adenocarcinoma cell line growth inhibition [POLQ]
Settings: for IC50: curve of first compound; for viability, T/C: stronger effect = lower value
In short: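 Patient-derived tumour cells were co-cultured with HUVEC and mesenchymal stem cells as multicellular spheroids at 37 °C. They were treated with POLQ inhibitors (novobiocin, ART-558, RP6685) alone or combined with other agents. Top concentrations were at or near clinical Cmax (otherwise 10 microM; SN-38 at 1 microM), decreasing in half-log steps.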

[1] = second compound 0.0316 µM, first compound 0.0316 µM
[2] = second compound 0.0316 µM, first compound 0.1 µM
[3] = second compound 0.0316 µM, first compound 0.316 µM
[4] = second compound 0.0316 µM, first compound 1 µM
[5] = second compound 0.0316 µM, first compound 3.16 µM
[6] = second compound 0.0316 µM, first compound 10 µM
[7] = second compound 0.1 µM, first compound 0.0316 µM
[8] = second compound 0.1 µM, first compound 0.1 µM
[9] = second compound 0.1 µM, first compound 0.316 µM
[10] = second compound 0.1 µM, first compound 1 µM
[11] = second compound 0.1 µM, first compound 3.16 µM
[12] = second compound 0.1 µM, first compound 10 µM
[13] = second compound 0.316 µM, first compound 0.0316 µM
[14] = second compound 0.316 µM, first compound 0.1 µM
[15] = second compound 0.316 µM, first compound 0.316 µM
[16] = second compound 0.316 µM, first compound 1 µM
[17] = second compound 0.316 µM, first compound 3.16 µM
[18] = second compound 0.316 µM, first compound 10 µM
[19] = second compound 1 µM, first compound 0.0316 µM
[20] = second compound 1 µM, first compound 0.1 µM
[21] = second compound 1 µM, first compound 0.316 µM
[22] = second compound 1 µM, first compound 1 µM
[23] = second compound 1 µM, first compound 3.16 µM
[24] = second compound 1 µM, first compound 10 µM
[25] = second compound 3.16 µM, first compound 0.0316 µM
[26] = second compound 3.16 µM, first compound 0.1 µM
[27] = second compound 3.16 µM, first compound 0.316 µM
[28] = second compound 3.16 µM, first compound 1 µM
[29] = second compound 3.16 µM, first compound 3.16 µM
[30] = second compound 3.16 µM, first compound 10 µM
[31] = second compound 10 µM, first compound 0.0316 µM
[32] = second compound 10 µM, first compound 0.1 µM
[33] = second compound 10 µM, first compound 0.316 µM
[34] = second compound 10 µM, first compound 1 µM
[35] = second compound 10 µM, first compound 3.16 µM
[36] = second compound 10 µM, first compound 10 µM
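Note: spheroids exposed to compounds for seven days.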
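Throughout, for viability, T/C: 100% = DMSO vehicle control viability.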

For CCc1cc2c(N3CCc4c(cc(Cn5ccnc5)cc4-c4cn(C)nc4C(F)(F)F)C3=O)cc(C)nc2c(OC)n1 + Cc1cccc(N(C)C(=O)C2C(O)CCN2c2nc(C)cc(C(F)(F)F)c2C#N)c1, the IC50 (second compound 0.0316 µM) was > 10 µM, the IC50 (second compound 0.1 µM) was > 10 µM and the IC50 (second compound 0.316 µM) was > 10 µM. For the same compound, the IC50 (second compound 1 µM) was > 10 µM, the IC50 (second compound 3.16 µM) was > 10 µM and the IC50 (second compound 10 µM) was > 10 µM. The viability, T/C [1] was 102%, the viability, T/C [2] was 99.6% and the viability, T/C [3] was 104%. For the same compound, the viability, T/C [4] was 108%, the viability, T/C [5] was 108% and the viability, T/C [6] was 98.3%. It also gave a viability, T/C [7] of 110%, a viability, T/C [8] of 100% and a viability, T/C [9] of 102%. For the same compound, the viability, T/C [10] was 107%, the viability, T/C [11] was 103% and the viability, T/C [12] was 103%. The viability, T/C [13] was 108%, the viability, T/C [14] was 105% and the viability, T/C [15] was 93.2%. The viability, T/C [16] was 105%, the viability, T/C [17] was 110% and the viability, T/C [18] was 95.7%. The viability, T/C [19] was 117%, the viability, T/C [20] was 95.6% and the viability, T/C [21] was 88.3%. For the same compound, the viability, T/C [22] was 95.4%, the viability, T/C [23] was 108% and the viability, T/C [24] was 85.2%. It also gave a viability, T/C [25] of 99.8%, a viability, T/C [26] of 92.2% and a viability, T/C [27] of 91.8%. For the same compound, the viability, T/C [28] was 106%, the viability, T/C [29] was 97.5% and the viability, T/C [30] was 108%. For the same compound, the viability, T/C [31] was 102%, the viability, T/C [32] was 98.7% and the viability, T/C [33] was 87.8%. For the same compound, the viability, T/C [34] was 95.4%, the viability, T/C [35] was 93.9% and the viability, T/C [36] was 89.7%.

In the case of CCc1cc2c(N3CCc4c(cc(Cn5ccnc5)cc4-c4cn(C)nc4C(F)(F)F)C3=O)ccnc2c(OC)n1 + Cc1cccc(N(C)C(=O)C2C(O)CCN2c2nc(C)cc(C(F)(F)F)c2C#N)c1, the IC50 (second compound 0.0316 µM) is reported as > 10 µM, the IC50 (second compound 0.1 µM) is reported as > 10 µM and the IC50 (second compound 0.316 µM) is reported as > 10 µM. For the same compound, the IC50 (second compound 1 µM) was > 10 µM, the IC50 (second compound 3.16 µM) was > 10 µM and the IC50 (second compound 10 µM) was > 10 µM. The viability, T/C [1] was 97%, the viability, T/C [2] was 99.7% and the viability, T/C [3] was 98.2%. For the same compound, the viability, T/C [4] was 104%, the viability, T/C [5] was 105% and the viability, T/C [6] was 92.4%. For the same compound, the viability, T/C [7] was 110%, the viability, T/C [8] was 107% and the viability, T/C [9] was 109%. It also gave a viability, T/C [10] of 103%, a viability, T/C [11] of 114% and a viability, T/C [12] of 89.3%. The viability, T/C [13] was 105%, the viability, T/C [14] was 109% and the viability, T/C [15] was 92.8%. The viability, T/C [16] was 113%, the viability, T/C [17] was 109% and the viability, T/C [18] was 81.3%. It also gave a viability, T/C [19] of 103%, a viability, T/C [20] of 108% and a viability, T/C [21] of 105%. The viability, T/C [22] was 103%, the viability, T/C [23] was 102% and the viability, T/C [24] was 82.7%. For the same compound, the viability, T/C [25] was 101%, the viability, T/C [26] was 94.9% and the viability, T/C [27] was 95.2%. It also gave a viability, T/C [28] of 103%, a viability, T/C [29] of 99.8% and a viability, T/C [30] of 85.5%. For the same compound, the viability, T/C [31] was 98%, the viability, T/C [32] was 86.4% and the viability, T/C [33] was 93.6%. For the same compound, the viability, T/C [34] was 97.8%, the viability, T/C [35] was 103% and the viability, T/C [36] was 83.6%.

In the case of COc1cc2cc(C(=O)CCC(=O)O)sc2cc1OC + Cc1cccc(N(C)C(=O)C2C(O)CCN2c2nc(C)cc(C(F)(F)F)c2C#N)c1, the IC50 (second compound 0.0316 µM) is reported as > 10 µM, the IC50 (second compound 0.1 µM) is reported as > 10 µM and the IC50 (second compound 0.316 µM) is reported as > 10 µM. The IC50 (second compound 1 µM) was > 10 µM, the IC50 (second compound 3.16 µM) was > 10 µM and the IC50 (second compound 10 µM) was > 10 µM. It also gave a viability, T/C [1] of 100%, a viability, T/C [2] of 106% and a viability, T/C [3] of 96.5%. The viability, T/C [4] was 99.5%, the viability, T/C [5] was 105% and the viability, T/C [6] was 92%. It also gave a viability, T/C [7] of 111%, a viability, T/C [8] of 97.1% and a viability, T/C [9] of 98.2%. For the same compound, the viability, T/C [10] was 95.3%, the viability, T/C [11] was 111% and the viability, T/C [12] was 88.3%. The viability, T/C [13] was 112%, the viability, T/C [14] was 106% and the viability, T/C [15] was 106%. For the same compound, the viability, T/C [16] was 108%, the viability, T/C [17] was 114% and the viability, T/C [18] was 100%. For the same compound, the viability, T/C [19] was 108%, the viability, T/C [20] was 101% and the viability, T/C [21] was 108%. For the same compound, the viability, T/C [22] was 98.9%, the viability, T/C [23] was 103% and the viability, T/C [24] was 88.8%. For the same compound, the viability, T/C [25] was 96.7%, the viability, T/C [26] was 98.3% and the viability, T/C [27] was 102%. It also gave a viability, T/C [28] of 101%, a viability, T/C [29] of 97.9% and a viability, T/C [30] of 95.4%. It also gave a viability, T/C [31] of 94.3%, a viability, T/C [32] of 82.2% and a viability, T/C [33] of 101%. The viability, T/C [34] was 89.5%, the viability, T/C [35] was 99.4% and the viability, T/C [36] was 90.9%.

In the case of COc1ccc([C@@H](O)c2cc(-c3ncnc4cc(N5CCOCC5)ccc34)c(F)cc2Cl)nn1 + Cc1cccc(N(C)C(=O)C2C(O)CCN2c2nc(C)cc(C(F)(F)F)c2C#N)c1, the IC50 (second compound 0.0316 µM) is reported as > 10 µM, the IC50 (second compound 0.1 µM) is reported as > 10 µM and the IC50 (second compound 0.316 µM) is reported as > 10 µM. The IC50 (second compound 1 µM) was > 10 µM, the IC50 (second compound 3.16 µM) was 9.23 µM and the IC50 (second compound 10 µM) was > 10 µM. For the same compound, the viability, T/C [1] was 98.6%, the viability, T/C [2] was 94.8% and the viability, T/C [3] was 101%. For the same compound, the viability, T/C [4] was 99%, the viability, T/C [5] was 77.5% and the viability, T/C [6] was 57.6%. The viability, T/C [7] was 103%, the viability, T/C [8] was 103% and the viability, T/C [9] was 97.4%. The viability, T/C [10] was 91.8%, the viability, T/C [11] was 85.2% and the viability, T/C [12] was 57.3%. It also gave a viability, T/C [13] of 109%, a viability, T/C [14] of 104% and a viability, T/C [15] of 103%. For the same compound, the viability, T/C [16] was 92.7%, the viability, T/C [17] was 78.5% and the viability, T/C [18] was 53.6%. The viability, T/C [19] was 100%, the viability, T/C [20] was 93.8% and the viability, T/C [21] was 94%. The viability, T/C [22] was 92.1%, the viability, T/C [23] was 84.1% and the viability, T/C [24] was 52.3%. For the same compound, the viability, T/C [25] was 92%, the viability, T/C [26] was 101% and the viability, T/C [27] was 95.9%. For the same compound, the viability, T/C [28] was 87.4%, the viability, T/C [29] was 74.5% and the viability, T/C [30] was 48.1%. For the same compound, the viability, T/C [31] was 97.2%, the viability, T/C [32] was 79.7% and the viability, T/C [33] was 83.8%. It also gave a viability, T/C [34] of 78.9%, a viability, T/C [35] of 71.6% and a viability, T/C [36] of 51%.

— PubChem BioAssay AID1963840 (Molecular Pharmacology Branch, DTP, NCI, 2024)
